Measured values published in US11254986B2, “Gene signature for immune therapies in cancer” (ALMAC DIAGNOSTICS LIMITED, priority 2015, dated 2022).

Legend:
[1] = tested on: CXCL10 and CCL5 chemokine production in MDA-MB-436 EV cells; experiment: Chemokine expression after small molecule inhibitors of ATM, ATR and DNAPK; format: cell-based; conditions: DDRD positive cells (MDA-MB-436 EV), compared to the DMSO control, FIG. 16
Procedure: (§1) The product of Reverse Transcription was diluted 1:10 in Nuclease Free Water (NFW). Each 10 μl PCR reaction, consisted of 0.5 μl of 10 μM Forward primer, 0.5 μl of 10 μM Reverse primer, 5 μl of 2× LightCycler® 480 SYBR Green I Master mix (Roche), 1.5 μl NFW and 2.5 μl diluted Reverse Transcription product. These 10 μl reactions were pipetted into wells of a LightCycler® 480 multiwell 96 plate (Roche), the plate was then sealed using clear adhesive film (Roche). The plate was placed into the LightCycler® 480 (Roche) and run with the following protocol. (95° C. for 10 mins, 45 cycles of; 95° C. for 15 secs, 55° C. for 30 secs and 72° C. for 30 secs, finishing with a melt curve for confirmation of primer specificity. All qPCR data was analysed using the LightCycler® 480 software provided by Roche. For analysis, the Cp value from a technical duplicate was calculated and the relative amount of a gene was calculated Cp value to an in-run standard curve. Each mean value was then normalised to the mean concentration of the housekeeping gene PUM1 within the corresponding sample, by dividing the concentration of the target gene by the concentration of the house keeping gene. Relative expression refers to the gene expression levels that have been normalised to the housekeeping gene and made relative to the associated control samples. From these normalized values, the fold changes for each gene were calculated and the average of three individual fold changes were derived from three independent experimental triplicates. The unpaired, two-tailed students T-test available on GraphPad Prism 5.0 software was used to detect statistical significance.
(§2) For analysis of effects of ATM, ATR and DNAPK on cytokine expression, cells were seeded in six well plates at ˜60% confluency. Following incubation overnight, small molecule inhibitors of ATM (Ku60019, Selleck Chem) at a dose of 1 μm, ATR (ETP46464, Selleck Chem) at a dose of 5 μm and DNAPK (Nu7441, Selleck Chem) at a dose of 5 μm were added. At 24 hours, RNA and protein samples were obtained for analysis. For analysis of the effects of DNA damaging agents and paclitaxel on cytokine expression, cells were seeded in six well plates at ˜60% confluency. Following incubation overnight, IC50 doses of Cisplatin and Paclitaxel (obtained from fresh Pharmacy stock) and Hydroxyurea (Sigma Aldrich) were added for 24 hours to 48 hours. At the appropriate timepoint, RNA and protein samples were obtained for analysis.

[2] = tested on: HCC1937 parental and HCC1937-BR cells; conditions: HCC1937 BRCA1 mutant cell-line relative to BRCA1 corrected cell-line (HCC1937-BR); FIG. 8C
Procedure: The cell-lines were routinely maintained in RPMI-1640 medium supplemented with 50 U penicillin/ml, 50 μg streptomycin/ml, 2 mM glutamine, 1 mM Sodium Pyruvate and 20% (v/v) fetal bovine serum (FBS). The HCC1937-EV and HCC937-BR cell-lines also required 0.2 ml/mg geneticin. Cell-lines were cultured at 37° C. with a humidified atmosphere of 5% CO2.
Twenty-four hours following seeding the cells were exposed to medium containing increasing doses of drug. Cell medium was replenished every 4-5 days. After 12-14 days the cells were fixed in methanol, stained with crystal violet and counted. The percentage survival of control for a given dose was calculated as the plating efficiencies for that dose divided by the plating efficiencies of vehicle-treated cells. Survival curves and half maximal inhibitory concentration (IC50) values were calculated using GraphPad Prism.

[3] = tested on: CXCL10 and CCL5 expression; experiment: qRT-PCR of chemokine expression after DNA damaging agents, paclitaxel or nocodazole; format: cell-based
Procedure: Reverse transcription was performed using the First Strand cDNA synthesis kit (Roche). 500 ng of RNA was reverse transcribed according to manufacturer's instructions. Exon-spanning qPCR primers were designed using Roche Universal Probe Library Assay Design Centre and were used at a concentration of 0.5 μM. The following primer sequences were used:
To preform absolute quantification from qPCR, we used a standard curve method. The efficiency of each primer set was derived from the standard curve using the following equation: E=10^(−1/slope)
as §1
as §2, with “Following incubation overnight, IC50 doses of Cisplatin and Paclitaxel (obtained from fresh Pharmacy stock) and Hydroxyurea (Sigma Aldrich) were added for 24 hours to 48 hours. At the appropriate timepoint, RNA and protein samples were obtained for analysis.” left out

[4] = tested on: cytosolic DNA in HeLa cells; experiment: PicoGreen fluorescent staining of double-stranded DNA, confocal microscopy; format: cell-based; conditions: IC50 doses, FIG. 19C
Source text: We probed cytosolic fractions of DDRD positive cells MDA-436-EV and +BRCA1, and HCC1937-EV and +BRCA1 cells for the presence of Histone H3, and found Histone H3 protein expression was increased in the repair deficient lines (EV) (FIG. 19A, top panel of blots). […] PicoGreen fluorescent staining was used to detect double-stranded DNA (ds-DNA). […] This increase in cytosolic DNA was however not observed in response to treatment with Paclitaxel (HeLa+Paclitaxel IC50) (FIG. 19C).

[5] = tested on: HeLa, HCC1937 EV and MDA-MB-436 EV cells; experiment: Cell cycle analysis (propidium iodide, flow cytometry); format: cell-based; conditions: anti-mitotic agent treatment; FIG. 15
Procedure: as §2
Cells were trypsinised and fixed in 70% ethanol, incubated with RNase A and propidium iodide (P1) and analysed using a BD FACSCalibur™ (BD Biosciences, CA, USA). Data was analysed using Flow Jo software to perform cell cycle analysis.

PDL1 = PDL1 expression in RKO cells after Interferon-γ, qPCR and western blot; format: cell-based; conditions: for PDL1 gene expression levels (fold change): RKO Par, RKO Fanc C and RKO Fanc G cells, FIG. 27B
Procedure: as §1, with “Relative expression refers to the gene expression levels that have been normalised to the housekeeping gene and made relative to the associated control samples.” left out, “The unpaired, two-tailed students T-test available on GraphPad Prism 5.0 software was used to detect statistical significance.” left out
Adherent cells formed whole cell lysates suspended in RIPA buffer containing phosphatase and protease inhibitors (Roche Inhibitor cocktails, Germany). […] Protein was quantified using the BCA Assay (Pierce, Rockford, Ill., USA) according to manufacturer's instructions using a plate reader. […] Results were then visualized and recorded using Luminata Crescendo Western HRP substrate (Millipore, UK) and an alpha imager.
The cytotoxic effects of lymphocytes on cancer cells was measured using LIVE/DEAD® Cell-Mediated Cytotoxicity Kit (Life technologies, Paisley, UK.) RKO parental and Fanc G cells were trypsinised, counted and stained with green-fluorescent membrane stain DiOC18 in PBS at a concentration of 2 μl of stain per ml. […]

[6] = tested on: RKO Parental and RKO FANCG-/- cells; experiment: Lymphocyte (PBMC) mediated cytotoxicity, LIVE/DEAD Cell-Mediated Cytotoxicity Kit; format: cell-based; conditions: pre-treatment of cancer cells, PBMC ratio 5:1, p-value<0.05, FIG. 27A
Procedure: The cytotoxic effects of lymphocytes on cancer cells was measured using LIVE/DEAD® Cell-Mediated Cytotoxicity Kit (Life technologies, Paisley, UK.) RKO parental and Fanc G cells were trypsinised, counted and stained with green-fluorescent membrane stain DiOC18 in PBS at a concentration of 2 μl of stain per ml. Cells were incubated with the stain for 20 minutes at 37° C. before being seeded into 12 well plates at a density of 1×10^5 cells per well and left to adhere overnight. The next day PMBCs were counted and added to RKO cell cultures at the ratios indicated. For 1:1 ratio 1×10^5 PBMCs were added, for 5:1 ratio 5×10^5 PBMCs were added. The co-cultures were incubated for 4 hours before cells were collected for analysis by flow cytometry. A BD FACSCalibur™ (BD Biosciences, CA, USA) was used for the analysis of samples and Flow Jo software was used for data analysis. Cells were treated with interferon-γ at a concentration of 20 ng/ml for 16 hours.

Molecule: C[C@@H]1CN(CC(=O)Nc2ccc3c(c2)Cc2cccc(-c4cc(=O)cc(N5CCOCC5)o4)c2S3)C[C@H](C)O1 [Ku60019]
- CXCL10 and CCL5 chemokine production / expression levels [1]: No significant decreases

Molecule: O=C(c1cc(Cc2n[nH]c(=O)c3ccccc23)ccc1F)N1CCCNCC1 [KU0058948]
- sensitivity to PARP-1 inhibitor (clonogenic survival) [2]: more sensitive

Molecule: CC(=O)O[C@H]1C(=O)[C@@]2(C)[C@H]([C@H](OC(=O)c3ccccc3)[C@]3(O)C[C@H](OC(=O)[C@H](O)[C@@H](NC(=O)c4ccccc4)c4ccccc4)C(C)=C1C3(C)C)[C@]1(OC(C)=O)CO[C@@H]1C[C@@H]2O [Paclitaxel]
- CXCL10 and CCL5 relative expression ([3]; HeLa, HCC1937 EV and MDA-MB-436 EV cells, IC-50 doses, compared to DMSO control, FIG. 14): not significantly increased
- cytosolic DNA (PicoGreen, confocal microscopy) [4]: not observed

Molecule: COC(=O)Nc1nc2ccc(C(=O)c3cccs3)cc2[nH]1 [Nocodazole]
- mRNA expression of CXCL10 ([3]; anti-mitotic agent treatment, FIG. 15A): reduced mRNA expression of CXCL10
- cell cycle arrest [5]: arrest in the M phase

Molecule: Interferon-γ: Interferon-γ, cells treated at 20 ng/ml for 16 hours
- PDL1 protein level (western blotting) (PDL1; RKO Par and RKO Fanc G cells, pre-treatment, FIG. 27C): enhanced PDL1 levels
- PDL1 gene expression levels (fold change) (PDL1): significantly increases PDL1 gene expression levels
- PDL1 gene expression levels (fold change) (PDL1; listed as IFN-γ): drives PDL-1 expression in DDRD+

Molecule: O=c1cc(N2CCOCC2)oc2c(-c3cccc4c3sc3ccccc34)cccc12 [Nu7440]
- CXCL10 and CCL5 chemokine production / expression levels [1]: No significant decreases
- CXCL10 and CCL5 chemokine production / expression levels ([1]; listed as DNAPKi): significantly increased

Molecule: CC(C)(C#N)c1ccc(N2C(=O)OCc3cnc4ccc(-c5cnc6ccccc6c5)cc4c32)cc1 [ETP-46464]
- CXCL10 and CCL5 chemokine production / expression levels [1]: No significant decreases

B1: Interferon-γ: Interferon-γ, cells treated at 20 ng/ml for 16 hours (protein, UniProt P01579 24-161, looked up)
Interferon gamma: QDPYVKEAENLKKYFNAGHSDVADNGTLFLGILKNWKEESDRKIMQSQIVSFYFKLFKNFKDDQSIQKSVETIKEDMNVKFFNSNKKKRDDFEKLTNYSVTDLNVQRKAIHELIQVMAELSPAAKTGKRKRSQMLFRG
- lymphocyte mediated cytotoxicity, differential between RKO FANCG-/- and RKO Parental cells [6]: extends the differential cytotoxicity
- lymphocyte mediated cytotoxicity, differential between RKO FANCG-/- and RKO Parental cells ([6]; listed as IFN-γ): protects against PBMC mediated cytotoxicity
